This is an account of results in PubChem BioAssay (NCI).

Values joined by “and” are separate entries in the source; they are usually repeats but may differ in a detail not shown here. Identical values can stand only once.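 Five concentrations, 48 hours, 96-well plates. Here, GI50 denotes the concentration required for 50% inhibition of growth. Definition used: TGI = concentration required for complete inhibition of growth.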 Bounds are passed on as bounds.

Among the test systems are CAKI-1 renal; EKVX NSCLC; HCT-116 colon; HOP-92 NSCLC; MDA-MB-231 breast; NCI-H460 lung; UACC-62 melanoma; MDA-MB-435.
Test in all cases: NCI anticancer screen, dose series, 48 h

`CC(=O)c1ccc2c(c1)C1C=CCC1[C@H](c1cc3c(cc1Br)OCO3)N2` (some centres not stated): the GI50 in the test on CAKI-1 renal is 0.512 µM; in the test with EKVX NSCLC, 1.38 µM; in the test on HCT-116 colon, 1.18 µM; in the test with HOP-92 NSCLC, less than 0.0385 µM; in the test on MDA-MB-231 breast it was 1.3 µM; with NCI-H460 lung, 0.954 µM. In addition, the GI50 in the test with UACC-62 melanoma was 1.46 µM. The TGI in the test on CAKI-1 renal was 20.5 µM; in the test on EKVX NSCLC, greater than 52.5 µM; in the test on HCT-116 colon, 14.3 µM; in the test on HOP-92 NSCLC it was 0.479 µM; in the test with MDA-MB-231 breast, 11.4 µM; in the test on NCI-H460 lung it was 4.81 µM. Also, the TGI with UACC-62 melanoma is greater than 31.1 µM.
Regarding `CCC(O)c1ccc(Br)cc1NC(=O)c1cccc(Cl)c1` (configuration not stated), the GI50 in the test on CAKI-1 renal is 10.2 µM; in the test on HCT-116 colon, 14.2 µM; with HOP-92 NSCLC it was 12.1 µM; in the test with MDA-MB-231 breast, 18.8 µM; in the test on MDA-MB-435 it was 16.9 µM; in the test with NCI-H460 lung, 21.9 µM. Moreover, the GI50 with UACC-62 melanoma is 12.5 µM. The TGI was 51.4 µM in the test on CAKI-1 renal; 46.6 µM in the test on HCT-116 colon; 65.6 µM in the test on HOP-92 NSCLC; greater than 100 µM with MDA-MB-231 breast; 35 µM in the test on MDA-MB-435; 78.5 µM in the test with NCI-H460 lung. The compound also gave a TGI in the test on UACC-62 melanoma greater than 100 µM.
`OCc1ccc(N2CCc3cccc(F)c3C2)cc1Cl`: the GI50 is 1.19 µM in the test with CAKI-1 renal; less than 0.0104 µM with HCT-116 colon; 0.0873 µM in the test with HOP-92 NSCLC; 13.4 µM with MDA-MB-231 breast; 19.5 µM in the test on MDA-MB-435; less than 0.0194 µM with NCI-H460 lung. For the same compound, the TGI in the test on CAKI-1 renal is 21.8 µM; in the test with HCT-116 colon it was 14.6 µM; in the test with HOP-92 NSCLC, 14.2 µM; in the test on MDA-MB-231 breast, 43.5 µM; in the test on MDA-MB-435 it was 51.8 µM; with NCI-H460 lung, 1.23 µM.
Consider `COc1cc2nc(SCc3cc(OC)c(OC)c(OC)c3)n(Cc3ccccc3)c(=O)c2cc1OC`, for which the GI50 is 3.86 µM in the test on CAKI-1 renal; 2.42 µM with HCT-116 colon; 1.79 µM with HOP-92 NSCLC; 4.45 µM in the test with MDA-MB-231 breast; 0.375 µM with MDA-MB-435; 3.09 µM in the test with NCI-H460 lung. The GI50 in the test on UACC-62 melanoma was 3.22 µM. In addition, the TGI is greater than 100 µM in the test with CAKI-1 renal; greater than 100 µM with HCT-116 colon; 8.97 µM with HOP-92 NSCLC; greater than 66 µM with MDA-MB-231 breast; 2.04 µM in the test with MDA-MB-435; greater than 100 µM in the test on NCI-H460 lung. In the test with UACC-62 melanoma, this compound returned a TGI of 50.5 µM.
Take `COc1ccc(/C=C/C(=O)/C=C/c2cc3ccccc3[nH]c2=O)cc1`: the GI50 is 4.3 µM in the test with CAKI-1 renal; 1.55 µM with HCT-116 colon; 2.87 µM with MDA-MB-231 breast; 2.22 µM with MDA-MB-435; 4.98 µM in the test on NCI-H460 lung; 2.43 µM in the test on UACC-62 melanoma. Moreover, the TGI in the test on CAKI-1 renal amounted to 17.8 µM; with HCT-116 colon, 3.24 µM; in the test with MDA-MB-231 breast it was 10.9 µM; in the test on MDA-MB-435, 5.07 µM; with NCI-H460 lung, 20 µM; in the test on UACC-62 melanoma, 9.41 µM.
In the case of `C=CCn1c(C)nc2ccc(Nc3nc(Nc4ccc(F)cc4)nc4ccccc34)cc21`, the GI50 in the test with CAKI-1 renal is 6.86 µM; in the test on HCT-116 colon, 2.41 µM; in the test with HOP-92 NSCLC it was 0.585 µM; with MDA-MB-231 breast, 2.37 µM; in the test on MDA-MB-435, 4 µM; with NCI-H460 lung, 3.11 µM. The GI50 in the test with UACC-62 melanoma is 1.8 µM. The TGI with CAKI-1 renal was 27.5 µM; with HCT-116 colon, 7.67 µM; in the test with HOP-92 NSCLC, 6.97 µM; with MDA-MB-231 breast it was 8.24 µM; in the test on MDA-MB-435, 20.4 µM; in the test with NCI-H460 lung, 14.5 µM. In addition, the TGI with UACC-62 melanoma stood at 3.7 µM.
As to `O=S(=O)(NC1=NCCN1C(=S)SN1CCn2c1nsc2=S)c1cccc2ccccc12`, the GI50 in the test on CAKI-1 renal was 22.8 µM; with EKVX NSCLC, 25.8 µM; in the test on HCT-116 colon, 14.8 µM; in the test on MDA-MB-231 breast, 14.7 µM; in the test on MDA-MB-435, 17.4 µM; with NCI-H460 lung it was 20.4 µM. Besides, the GI50 with UACC-62 melanoma is 21 µM. In addition, the TGI in the test with CAKI-1 renal is 69.7 µM; with EKVX NSCLC, greater than 100 µM; in the test with HCT-116 colon it was 37.2 µM; in the test on MDA-MB-231 breast it was 32.5 µM; in the test on MDA-MB-435, 39.9 µM; in the test with NCI-H460 lung, greater than 100 µM. The TGI with UACC-62 melanoma was found to be 71.6 µM.
`CCOC(=O)C(Cc1c[nH]c2c(N(CCO)CCO)cccc12)(NC(C)=O)C(=O)OCC`: the GI50 with EKVX NSCLC is greater than 1000 µM; in the test on HCT-116 colon, 412 µM; in the test on HOP-92 NSCLC, greater than 1000 µM; in the test with MDA-MB-231 breast it was 692 µM; in the test with MDA-MB-435, 167 µM; in the test on NCI-H460 lung, 642 µM. The GI50 in the test on UACC-62 melanoma is 263 µM. For the same compound, the TGI was greater than 1000 µM in the test on EKVX NSCLC; greater than 1000 µM in the test on HCT-116 colon; greater than 1000 µM with HOP-92 NSCLC; greater than 1000 µM in the test on MDA-MB-231 breast; 311 µM in the test on MDA-MB-435; greater than 1000 µM with NCI-H460 lung. This compound yielded a TGI in the test on UACC-62 melanoma greater than 1000 µM.
As for `COC(=O)c1cc2c3ccccc3n3c(=O)c4cc5ccc(N(S(=O)(=O)c6ccc(C)cc6)S(=O)(=O)c6ccc(C)cc6)cc5nc4c(n1)c23`, the GI50 was greater than 100 µM in the test with CAKI-1 renal; 53.6 µM in the test on EKVX NSCLC; 12.4 µM with HOP-92 NSCLC; 21.4 µM in the test on MDA-MB-231 breast; greater than 100 µM in the test on MDA-MB-435; greater than 100 µM in the test on NCI-H460 lung. For the same compound, the GI50 with UACC-62 melanoma was 29.7 µM. In addition, the TGI in the test on CAKI-1 renal is greater than 100 µM; in the test on EKVX NSCLC, greater than 100 µM; in the test on HOP-92 NSCLC, 34.3 µM; with MDA-MB-231 breast, greater than 100 µM; in the test on MDA-MB-435 it was greater than 100 µM; in the test with NCI-H460 lung, greater than 100 µM. In the test on UACC-62 melanoma, this compound displayed a TGI greater than 100 µM.
With `COc1ccc(S(=O)(=O)N2CCN(C(=O)c3ccc(-c4ccccc4)cc3)CC2C(=O)NO)cc1` (configuration not stated), the GI50 in the test with CAKI-1 renal was 2.99 µM and 21.9 µM; in the test on EKVX NSCLC it was 1.61 µM; in the test with HCT-116 colon it was 2.92 µM and 25.5 µM; in the test on HOP-92 NSCLC, greater than 100 µM; in the test on NCI-H460 lung, 3.62 µM and 29.3 µM. Moreover, the TGI in the test on CAKI-1 renal was 12.5 µM and > 100 µM; in the test with EKVX NSCLC, 7.02 µM; in the test on HOP-92 NSCLC, greater than 100 µM; in the test with NCI-H460 lung, 12.5 µM and > 100 µM; in the test with UACC-62 melanoma it was 12.5 µM and > 100 µM.
